# Patent publication US5783599A, “Methods of treating cancer and viral infections with 5-iodo-6-amino-and 5-iodo-6-nitroso-1 2-benzopyrones” (priority 1996, dated 1998)
# “Also recorded” adds a separate entry of the source. Like-named read-outs stand apart in the source and are kept apart here.
# What was measured:
# HIV [1] = assay: Inhibition of syncytia formation by HIV in MT-2 cells; type: cell-based
# virus = assay: Antiviral effect in in vitro experiments at 0.35 mM; type: cell-based; conditions: 100 mg/kg corresponding to 0.35 mM
# [2] = Metabolic conversion in liver / intracellular oxidation and cell penetration
# CMV = CMV replication in infected cell culture; type: cell-based
# HSV = HSV replication in infected cell culture; type: cell-based
# Experimental: Herpes simplex virus (HSV) type 1 and 2 (F and G strains, respectively) were grown in HEp-2 cells and titered by plaque assay under liquid overlay as described in Proc. Natl. Acad. Sci., 83:2787 (1986). Virus titers for CMV are expressed as the highest dilution that causes 50% cytopathic effect (TCID50). Virus titers for HSV-1 and HSV-2 are expressed as […] per ml. HIV titers are expressed as syncytial forming units (SFU per ml), assayed on MT2 cells. Vero, HEp-2 or MRC-5 cells are exposed to various concentrations from 0.1 to 10 mM of 5-I-6-ABP in various time intervals before infecting them with HSV-1 or HSV-2 (5-10 PFU/cell). Virus titers are determined 24 hours later.
# HEp-2 cells = assay: DNA synthesis ([3H]deoxyadenosine incorporation) in HEp-2 cells; type: cell-based; conditions: Homo sapiens, 5-I-6-ABP 0.05 mM, 72 h, N=5, read-out: % Inhibition of DNA synthesis
# Text: (§1) In this study, the following cell lines were used. Cell line CG I, a non-tumorigenic hybrid of HeLa cells with normal human fibroblasts, and its is tumorigenic revertant counterpart, CG1 III, as described in Science, 215:252 (1982). These cells were obtained from UC Irvine. […] HEp-2 human epidermoid carcinoma cells were provided by Dr. L. Aurelian (University of Maryland). E-Ras cells were-obtained from University of Cincinnati and represent an endothelial cell line transfected with pSV2neo plasmid as described in Proc. Natl. Acad. Sci., 76:1373 (1979). This cell line contains several copies of the activated human Ha-ras oncogene.
# (§2) Cells were seeded to 2 cm^2 wells of Falcon tissue culture plates at a density of 6000±650 cells per well. Inhibitors were added to the seeding suspensions from stock solutions of 100 mM 6-ABP in water or 50 mM 5-1-6-ABP in dimethylsulfoxide (DMSO). […] Growth media were Dulbeccos MEM (lines #1 and 2), and Dulbeccols Modified Eagle's Medium, containing 10% fetal bovine serum and penicillin (100 μg/ml) plus streptomycin (100 μg/ml). […] Cells were then lysed in 500 μl of 0.06M NaOH and the acid precipitable radioactivity was determined.
# Rat-1 cells = assay: DNA synthesis ([3H]deoxyadenosine incorporation) in Rat-1 cells; type: cell-based; conditions: 5-I-6-ABP 0.05 mM, 72 h, N=5
# Text: as §1, §2
# HIV [3] = assay: Anti-HIV activity, overall comparison with 6-ABP; type: cell-based
# 14C cells = assay: DNA synthesis ([3H]deoxyadenosine incorporation) in 14C cells; type: cell-based; conditions: Rattus norvegicus, 5-I-6-ABP 0.05 mM, 72 h, N=5, read-out: % Inhibition of DNA synthesis
# Text: as §1, §2
# CG1 I cells = assay: DNA synthesis ([3H]deoxyadenosine incorporation) in CG1 I cells; type: cell-based; conditions: Homo sapiens, 5-I-6-ABP 0.05 mM, 72 h, N=5
# Text: as §1, §2
# E-Ras cells = assay: DNA synthesis ([3H]deoxyadenosine incorporation) in E-Ras cells; type: cell-based; conditions: 5-I-6-ABP 0.05 mM, 72 h, N=5
# Text: as §1, §2
# Stability in solution = type: physicochemical
# Text: 5-I-6-ABP, is a reasonably soluble molecule. It can form approximately 0. […] Such solution would be reasonably stable for use as an intravenous infusion formulation. The parenteral route of administration seems to be the most likely effective mode of administration against cancer or HIV infections at any stage of the disease. […] 5-I-6-ABP is most probably also effective for treatment of AIDS related Kaposi's sarcoma of inner organs. Properly formulated, it will also effect skin disorders. The color of the compound in the solid state depends on particle size. Large crystals are a very deep brown, small crystals, a medium brown, and when pulverized, the material in all cases is orange-colored.
# HIV [4] = assay: HIV proliferation in human lymphoblasts; type: cell-based
# Text: The HIV isolates used in these experiments are isolated from the blood of infected patients. After isolation, HIV infection is established in CEM cells, and these infected cells are used to produce a stock of HIV virus that is titered to measure the concentration of tissue culture infective doses (TCID).
# The cells are placed in culture in medium containing IL-2, but in the absence of additional 5-I-6-ABP, and monitored at 6 days and 12 days for the production of HIV-p24 core antigen, or for measurements of particulate reverse transcriptase.
# HIV p24 antigen is measured by ELISA, with a cutoff of 5 pgm/ml. Particulate reverse transcriptase is measured by centrifuging down free virus from tissue culture fluids, lysing HIV in a buffer containing detergent, magnesium, H3-labelled dTTP and poly rA.oligo dT primer, incubating for 1 hour, and measuring precipitable radioactivity, and is expressed as cpm per volume of HIV-containing medium.
# other enzymes = assay: Specificity towards other enzymes
# ADPRT = ADPRT (Bos taurus, UniProt P18493); assay: Inhibition of ADPRT / binding to ADPRT (I50, Ki); type: biochemical
# Text: Their biological action spectrum is nearly the same as that of 6-ABP, except that their potency is about 10-50 times greater. Such potency is particularly well documented in case of 5-I-6-ABP against malignant cell proliferation in cell cultures. […] This effectivity is 10-20 times higher than 6-ABP.
# The 6-amino group of 5-I-6-ABP is rapidly oxidized intracellularly to 5-I-6-NOBP which, by binding to the Zn^2+ -finger domain of ADPRT, destabilizes the tightly chelated Zn^2+ by the oxidation of the thiol groups in the Zn^2+ finger polypeptide, thus ejecting Zn^2+. In this way, 5-I-6-ABP effectively inactivates the ADPR-forming activity of this protein and converts it to a DNA binding protein that reacts with "internal domains" of certain double stranded DNA (Biochemistry, 28:5670 (1989); Biochem. Biophys. Res. Commun., 167:842 (1990)). These DNA domains include abnormally replicating DNA structures in tumorigenic or proliferative cells and in viral DNAs, probably at the integration sites.
# HIV [5] = assay: Cytopathogenic effect of HIV on MT-2 cells; type: cell-based
# Solubility = type: physicochemical; conditions: 25° C.
# Text: The color of the compound in the solid state depends on particle size. Large crystals are a very deep brown, small crystals, a medium brown, and when pulverized, the material in all cases is orange-colored.
# Sequence of ADPRT (P18493 whole entry): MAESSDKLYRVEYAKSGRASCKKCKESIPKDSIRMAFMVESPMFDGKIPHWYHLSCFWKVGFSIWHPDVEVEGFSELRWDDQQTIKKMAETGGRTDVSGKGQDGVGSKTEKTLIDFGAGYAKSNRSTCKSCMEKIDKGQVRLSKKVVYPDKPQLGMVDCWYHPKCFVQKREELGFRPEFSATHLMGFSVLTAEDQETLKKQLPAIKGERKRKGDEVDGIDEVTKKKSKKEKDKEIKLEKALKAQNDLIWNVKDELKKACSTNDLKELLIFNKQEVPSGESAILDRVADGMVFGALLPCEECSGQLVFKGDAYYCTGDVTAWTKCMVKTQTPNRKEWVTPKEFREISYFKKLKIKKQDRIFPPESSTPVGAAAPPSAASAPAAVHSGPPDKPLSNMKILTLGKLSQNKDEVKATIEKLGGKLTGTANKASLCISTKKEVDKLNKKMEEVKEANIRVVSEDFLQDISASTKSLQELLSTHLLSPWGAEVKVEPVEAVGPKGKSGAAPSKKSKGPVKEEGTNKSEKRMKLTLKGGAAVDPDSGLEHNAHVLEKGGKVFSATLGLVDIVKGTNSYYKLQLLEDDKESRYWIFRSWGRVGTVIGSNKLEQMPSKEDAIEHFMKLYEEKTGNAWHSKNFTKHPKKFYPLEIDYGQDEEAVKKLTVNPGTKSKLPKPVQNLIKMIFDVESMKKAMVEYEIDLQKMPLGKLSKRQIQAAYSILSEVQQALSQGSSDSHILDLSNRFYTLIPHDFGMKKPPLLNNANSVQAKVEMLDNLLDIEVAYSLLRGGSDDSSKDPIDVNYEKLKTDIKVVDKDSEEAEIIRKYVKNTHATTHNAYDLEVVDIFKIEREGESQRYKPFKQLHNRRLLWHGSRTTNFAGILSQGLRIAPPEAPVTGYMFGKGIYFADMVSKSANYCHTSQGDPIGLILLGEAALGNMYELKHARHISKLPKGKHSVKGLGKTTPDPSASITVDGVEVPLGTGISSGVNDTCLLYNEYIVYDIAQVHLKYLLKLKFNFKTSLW
smiles,measurement,setting,value
"Nc1ccc2oc(=O)ccc2c1I [5-I-6-ABP, 5-iodo-6-amino-1,2-benzopyrone]",inhibition of syncytia formation,HIV [1],complete
same,inhibition of syncytia formation relative to 3 mM 6-ABP,HIV [1],only slightly less inhibitory
same,antiviral effect,virus,maximal
same,cell penetration,"[2]; most mammalian cells, pH 7.2-7.4",to a limited degree
same,intracellular oxidation at 6-amino position,[2]; to 5-I-6-NOBP,rapid oxidation
same,metabolic conversion in the liver,"[2]; to 5-I-6-nitroBP, per os",rapid conversion in the liver
same,CMV inhibition,CMV,"specific, potent and non-toxic inhibitor; also recorded: effectively inhibits CMV growth"
same,HSV inhibition,HSV,"specific, potent and non-toxic inhibitor"
same,effect of cell type on inhibitory effect,"HSV; Vero, HEp-2 or MRC-5 cells, 0.1 to 10 mM",not affected by cell type
same,percent change in DNA synthesis vs control at 50 µM,HEp-2 cells,-52.4%
same,inhibition at 50 µM,Rat-1 cells,-35.6%
same,anti-HIV activity,HIV [3],"specific, potent and non-toxic inhibitor; also recorded: highly effective against HIV"
same,effectivity against HIV relative to 6-ABP,HIV [3],10-20 times
same,"inhibition of HIV replication, reversibility",HIV [3],"temporary, reversible"
same,percent change in DNA synthesis versus control at 50 µM,14C cells,-69.2%
same,inhibition at 50 µM,CG1 I cells,-7.6%
same,inhibition at 50 µM,E-Ras cells,-81.8%
same,"stability in water, ethanol and DMSO",Stability in solution; 25° C.,stable in all of these solvents
same,stability of aqueous solution,"Stability in solution; about 0.4 mM in water, pH 7.2-7.9, room temperature",stable for months at room temperature
same,stability with respect to boiling water,Stability in solution; boiling water,stable with respect to boiling water
same,degraded,"Stability in solution; water, kept in the dark, months at room temperature, read-out: decomposition in aqueous solution",< 0.1%
same,toxicity,General toxicity,completely nontoxic; also recorded: absence of toxicity
same,"inhibition of HIV, duration",HIV [4],temporary and reversible
same,activation or inhibition of other enzymes,other enzymes,no other enzymes are activated or inhibited
same,IC50,ADPRT,19 µM
same,Ki,ADPRT,2 µM
same,inhibition of / binding to ADPRT,ADPRT,potent inhibitor of ADPRT; also recorded: much tighter binding
same,times more potent than 6-ABP (on a concentration basis),ADPRT; vs non-iodinated 6-ABP,about 10 times
same,"cytopathogenic effect of HIV, effectiveness relative to 6-ABP",HIV [5],nearly as effective
same,solubility,"Solubility; water, read-out: solubility in water (saturated)",0.37 mM
same,solubility,"Solubility; organic solvent or mixture, DMSO, read-out: solubility in DMSO (saturated)",1900 mM
same,solubility,"Solubility; organic solvent or mixture, ethanol, read-out: solubility in ethanol (saturated)",4.7 mM
